Patent publication US8410141B2, “Insecticidal arylpyrrolines” (Bayer Cropscience AG, priority 2009, dated 2013)

Assays:
Format in all cases: in vivo
[1] = tested on: Lucilia cuprina 1st instar larvae; assay: Lucilia cuprina (48 h)
Description: Species: Lucilia cuprina 1st instar larvae (age 24 hrs)
(§1) Solvent: dimethyl sulfoxide
10 mg active compound are dissolved in 0.5 ml dimethyl sulfoxide. Serial dilutions are made to obtain the desired rates. Approximately 20 Lucilia cuprina 1st instar larvae are transferred into a test tube containing 1 cm^3 of minced horse meat and 0.5 ml aqueous dilution of test compound. After 48 hrs percentage of larval mortality are recorded. 100% efficacy=all larvae are killed, […].

Ctenocephalides felis = Ctenocephalides felis test (CTECFE); settings: Ctenocephalides felis, 48 h
Description: as §1
To produce a suitable preparation of active compound, 10 mg of active compound are dissolved in 0.5 ml solvent, and the concentrate is diluted with cattle blood to the desired concentration. Approximately 20 adult unfed (Ctenocepahlides felis) are placed in flea chambers. The blood chamber, sealed with parafilm on the bottom, are filled with cattle blood supplied with compound solution and placed on top of the flea chamber, so that the fleas are able to suck the blood. The blood chamber is heated to 37° C. whereas the flea chamber is kept at room temperature. After 2 days mortality in % is determined. 100% means that all the fleas have been killed; 0% means that none of the fleas have been killed.

[2] = tested on: Rice Leafroller (Cnaphalocrocis medinalis) Larvae; assay: Test against rice leafroller larvae, seed treatment; settings: 8 g/1 kg dry seeds, leaves cut 28 days after seeding, third-instar larvae, after 7 days
Description: To prepare the test solution, 1 part by weight of an active compound is mixed with the 8 parts of acetone, and mix with 20 mg of micronized mineral. After that 1 g of dry rice seeds and 50 ul of water are added and mixed well and dried in the air. Sow treated seeds in the pot having a diameter of 12 cm. 28 days after seeding the leaves were cut and placed in a petri dish having a diameter of 9 cm. And then five third-instar larvae of rice leafroller were released therein. The petri dish was placed in a temperature-controlled room at 25° C. After 7 days, the number of dead larvae was counted to calculate the insecticidal activity. An insecticidal activity of 100% means that all larvae were killed, whereas an insecticidal activity of 0% means that no larva was killed. […] The comparative compound B is No. 1-79 in WO2009/097992.

[3] = tested on: Cucurbit Leaf Beetle (Aulacophora femoralis); assay: Test against cucurbit leaf beetle (Aulacophora femoralis), leaf immersion; settings: 100 ppm; cucumber leaves immersed; second-instar larvae; after 7 days
Description: (§2) Unless not mentioned otherwise, the test solutions were prepared as follows:
(§3) Containing as solvent: Dimethylformamide, 3 parts by weight; and as emulsifier: Polyoxyethylene alkyl phenyl ether, 1 part by weight. To prepare the test solution, 1 part by weight of an active compound is mixed with the above-mentioned amount of solvent containing the above-mentioned amount of emulsifier, and the mixture is diluted with water to the desired concentration.
Cucumber leaves were immersed in the test solution at the appropriate concentration, and the leaves were dried in air. The leaves were then placed in a plastic cup containing sterilized black soil, and five second-instar larvae of cucurbit leaf beetle were released therein. The plastic cup was placed in a temperature-controlled chamber at 25° C. After 7 days, the number of dead larvae was counted, and thus the insecticidal activity was calculated. An insecticidal activity of 100% means that all beetles were killed, whereas an insecticidal activity of 0% means that no beetle was killed.

[4] = tested on: adult engorged female Boophilus microplus ticks; assay: Boophilus microplus (dip); settings: Rhipicephalus microplus, 168 h
Description: Solvent: Dimethylsulfoxid
To produce a suitable preparation of active compound, 10 mg of active compound are dissolved in 0.5 ml solvent, and the concentrate is diluted with water to the desired concentration. Eight to ten adult engorged female Boophilus microplus ticks are placed in perforated plastic beakers and immersed in aqueous compound solution for one minute. Ticks are transferred to a filter paper in a plastic tray. Egg deposition of fertile eggs is monitored after. After 7 days mortality in % is determined. 100% means that all the ticks have been killed; 0% means that none of the ticks have been killed.

Musca domestica = Musca domestica test
Description: as §1
To produce a suitable preparation of active compound, 10 mg of active compound are dissolved in 0.5 ml solvent, and the concentrate is diluted with water to the desired concentration. Prior to the assay, a piece of kitchen sponge is soaked with a mixture of sugar and compound solution and placed into a container. 10 adults (Musca domestica) are placed into the container and closed with a perforated lid. After 2 days mortality in % is determined. 100% means that all the flies have been killed; 0% means that none of the flies have been killed.

[5] = tested on: Tobacco Cutworm (Spodoptera litura) Larvae; assay: Test against tobacco cutworm larvae, root systemicity; settings: 100 ppm; broccoli seedling roots dipped 3 days; second-instar larvae; after 4 days
Description: as §2, §3
The roots of seedling of broccoli at 1.2 leaf stage were dipped into the test solution at the appropriate concentration. After 3 days, the leaves were cut and placed in a petri dish having a diameter of 9 cm. And then five second-instar larvae of tobacco cutworm were released therein. The petri dish was placed in a temperature-controlled room at 25° C. After 4 days, the number of dead larvae was counted, to calculate the insecticidal activity. An insecticidal activity of 100% means that all larvae were killed, whereas an insecticidal activity of 0% means that no larva was killed.

[6] = tested on: Tobacco Cutworm (Spodoptera litura) Larvae; assay: Test against tobacco cutworm (Spodoptera litura) larvae, leaf immersion; settings: 100 ppm; sweet potato leaves immersed; third-instar larvae; after 7 days
Description: as §2, §3
The leaves of sweet potato were immersed in the test solution at the appropriate concentration, and the leaves were dried in air. The leaves were then placed in a petri dish having a diameter of 9 cm, and ten third-instar larvae of tobacco cutworm were released therein. The petri dish was placed in a temperature-controlled chamber at 25° C. After 2 days and 4 days sweet potato leaves were additionally added. After 7 days, the number of dead larvae was counted to calculate the insecticidal activity. An insecticidal activity of 100% means that all larvae were killed, whereas an insecticidal activity of 0% means that no larva was killed. In the current test, the results of two petri dishes for each partition were averaged.

[7] = tested on: Tobacco Cutworm (Spodoptera litura) Larvae; assay: Test against tobacco cutworm larvae, systemic test by soil drench; settings: 250 ppm, 20 ml soil drench on potted broccoli, leaves cut after 7 days, third-instar larvae
Description: as §2, §3
20 ml of the test solution at the appropriate concentration was treated on the soil surface of potted broccoli seedling at 2 to 3 leaf stage. After 7 days, the leaves were cut and placed in a petri dish having a diameter of 9 cm. And then ten third-instar larvae of tobacco cutworm were released therein. The petri dish was placed in a temperature-controlled room at 25° C. After 7 days, the number of dead larvae was counted to calculate the insecticidal activity. An insecticidal activity of 100% means that all larvae were killed, whereas an insecticidal activity of 0% means that no larva was killed. […] The comparative compound A is No. 1-72 in WO2009/097992.

[8] = tested on: Two-Spotted Spider Mite (Tetranychus urticae); assay: Test against two-spotted spider mite (Tetranychus urticae), spray; settings: 100 ppm; sprayed on kidney bean; adult mites; after 7 days
Description: as §2, §3
50 to 100 adult two-spotted spider mites were inoculated onto the leaves of kidney beans at the two-true leaf stage, which plant had been cultivated in a pot having a diameter of 6 cm. After one day, test solution at the appropriate concentration was sprayed thereon in a sufficient amount using a spray gun. After the spraying, the plant pot was placed inside a greenhouse, and after 7 days, the acaricidal activity was calculated. An acaricidal activity of 100% means that all mites were killed, whereas an acaricidal activity of 0% means that no mite was killed.

[9] = tested on: mustard beetle larvae (Phaedon cochleariae); assay: Phaedon cochleariae test, PHAECO spray application; settings: 100 g/ha; Chinese cabbage leaf-disks sprayed; after 7 days
Description: Solvent: 78.0 parts by weight of acetone
• 1.5 parts by weight of dimethylformamide Emulsifier: 0.5 parts by weight of alkylaryl polyglycolether
(§4) To produce a suitable preparation of active compound, 1 part by weight of active compound is mixed with the stated amount of solvent and emulsifier, and the concentrate is diluted with emulsifier-containing water to the desired concentration.
Chinese cabbage (Brassica pekinesis) leaf-disks are sprayed with a preparation of the active ingredient of the desired concentration. Once dry, the leaf disks are infested with mustard beetle larvae (Phaedon cochleariae).
After 7 days mortality in % is determined. 100% means that all beetle larvae have been killed and 0% means that none of the beetle larvae have been killed.

[10] = tested on: fall armyworm larvae (Spodoptera frugiperda); assay: Spodoptera frugiperda test, SPODFR spray application; settings: 100 g/ha; maize leaf sections sprayed; after 7 days
From the text: (§5) Solvent: 78.0 parts by weight acetone
(§6) • 1.5 parts by weight dimethylformamide Emulsifier: 0.5 parts by weight alkylarylpolyglycolether
To produce a suitable preparation of the active compound, 1 part by weight of active compound is mixed with the stated amount of solvent and emulsifier, and the concentrate is dilutes with emulsifier-containing water to the desired concentration. Maize (Zea mais) leaf sections are sprayed with a preparation of the active ingredient of the desired concentration. Once dry, the leaf sections are infested with fall armyworm larvae (Spodoptera frugiperda).
After 7 days mortality in % is determined. 100% means that all caterpillars have been killed and 0% means that none of the caterpillars have been killed.

[11] = tested on: green peach aphid (Myzus persicae); assay: Myzus test, oral (MYZUPE O); settings: 100 g/ha; aphids suck on preparation; after 5 days
Description: Solvent: 80 parts by weight acetone
To produce a suitable preparation of active compound, 1 part by weight of active compound ist mixed with the stated amount of solvent and emulsifier, and the concentrate is diluted with emulsifier-containing water to the desired concentration. Containers are infested with a mixed population of the green peach aphid (Myzus persicae), the aphids suck on a preparation of the active compound at the desired concentration.
After 5 days mortality in % is determined. 100% means that all aphids have been killed; 0% means that none of the aphids have been killed.

[12] = tested on: two spotted spidermite (Tetranychus urticae), OP-resistant; assay: Tetranychus urticae test, OP-resistant (TETRUR spray application); settings: 100 g/ha; French beans sprayed; all stages; after 6 days
Description: as §5, §6
as §4, with “concentration. French beans (Phaseolus vulgaris) which are heavily infested with all stages of the two spotted spidermite (Tetranychus urticae), are sprayed with a preparation of the active ingredient at the desired concentration.” for “concentration.”
After 6 days mortality in % is determined. 100% means that all spider mites have been killed and 0% means that none of the spider mites have been killed.

Row | SMILES | mortality at 100 ppm ([1]; Lucilia cuprina, 48 h, read-out: larval mortality) [%] | mortality at 100 ppm (Ctenocephalides felis) [%] | insecticidal activity [2] [%] | insecticidal activity [3] [%] | mortality at 100 ppm [4] [%] | mortality at 100 ppm (Musca domestica; Musca domestica, 48 h) [%] | insecticidal activity [5] [%] | insecticidal activity [6] [%] | insecticidal activity [7] [%] | acaricidal activity rate [8] [%] | mortality [9] [%] | mortality [10] [%] | mortality [11] [%] | mortality [12] [%] | larval mortality ([1]; 100 ppm, minced horse meat, after 48 hrs) [%] | mortality (Musca domestica; 100 ppm, sponge with sugar and compound solution, adults, after 2 days) [%]
1 | N#Cc1cc(C2=NCC(c3cc(Cl)nc(Cl)c3)(C(F)(F)F)C2)ccc1-n1cncn1 (stereo not shown) [1-1, 5-[3-(2,6-dichloropyridin-4-yl)-3-(trifluoromethyl)-3,4-dihydro-2H-pyrrol-5-yl]-2-(1H-1,2,4-triazol-1-yl)benzonitrile] | 100 | 100 | 100 | 100 | 100 | 100 | 100 | 100 | 100 | 100 | – | – | – | – | – | –
2 | CN(C)c1c(Cl)cc(C2(C(F)(F)F)CN=C(c3ccc(-n4cncn4)c(C#N)c3)C2)cc1Cl (stereo not shown) [1-3] | – | – | – | – | – | – | – | – | – | – | 100 | 83 | 100 | 100 | – | –
3 | N#Cc1cc(C2=NCC(c3cc(C(F)(F)F)nc(C(F)(F)F)c3)(C(F)(F)F)C2)ccc1-n1cncn1 (stereo not shown) [1-22] | – | – | 100 | 100 | – | – | 100 | 100 | 100 | 100 | – | – | – | – | – | –
4 | N#Cc1cc(C2=NCC(c3cc(Cl)c4c(c3)OC(F)(F)O4)(C(F)(F)F)C2)ccc1-n1cncn1 (stereo not shown) [1-25] | – | – | – | 100 | – | – | 100 | 100 | – | – | – | – | – | – | 90 | 90
